Assay results published in PubChem BioAssay AID330 (DTP/NCI, 2004).
Where “and” joins values, the source holds several entries; their conditions need not be identical. Equal entries are not always repeated. Toxic doses and inconclusive results are not listed. How the source made its calls: active means survival T/C of 150% or more; inactive means T/C below 125% in these data.

Test system: P388 leukemia ip, CD2F1 mice, survival T/C
Assay: NCI In Vivo Anticancer Drug Screen. Data for tumor model P388 Leukemia (intraperitoneal) in CD2F1 (CDF1) mice
Conditions: endpoint: median survival time, higher = longer survival
How it was run: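 Mice carrying the transplanted tumor received test compound or vehicle. Survival was recorded in each group, and the value is the treated-group measurement divided by that of the vehicle-treated control group.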

[1] = dose: 50.0 mg/kg/injection, schedule: Q01DX005 (ip), vehicle: saline with Tween-80
[2] = dose: 100.0 mg/kg/injection, schedule: Q01DX005 (ip), vehicle: saline with Tween-80
[3] = dose: 60.0 mg/kg/injection, schedule: Q01DX005 (ip), vehicle: saline with Tween-80
[4] = dose: 120.0 mg/kg/injection, schedule: Q01DX005 (ip), vehicle: saline with Tween-80
[5] = dose: 240.0 mg/kg/injection, schedule: Q01DX005 (ip), vehicle: saline with Tween-80
[6] = dose: 60.0 mg/kg/injection, schedule: Q01DX005 (ip), vehicle: saline
[7] = dose: 50.0 mg/kg/injection, schedule: Q01DX005 (ip), vehicle: Klucel (hydroxypropylcellulose) (HPC)
[8] = dose: 100.0 mg/kg/injection, schedule: Q01DX005 (ip), vehicle: Klucel (hydroxypropylcellulose) (HPC)
[9] = dose: 200.0 mg/kg/injection, schedule: Q01DX005 (ip), vehicle: saline with Tween-80
[10] = dose: 25.0 mg/kg/injection, schedule: Q01DX009 (ip), vehicle: other
[11] = dose: 120.0 mg/kg/injection, schedule: Q01DX005 (ip), vehicle: saline

Measured: T/C

CCCCCC(O)CC(O)CC(=O)CCCC(=O)CC(O)CC(=O)CCCCCC(O)CC(O)CC(=O)CCCC(=O)CC(O)CC(=O)CCCC(C)=O (configuration not stated) (tested in a mixture with another compound)
inactive: dose: 0.62 mg/kg/injection, schedule: Q01DX005 (ip), vehicle: DMSO 91 % of control | dose: 1.25 mg/kg/injection, schedule: Q01DX005 (ip), vehicle: DMSO 91 % of control | dose: 2.5 mg/kg/injection, schedule: Q01DX005 (ip), vehicle: DMSO 90 % of control | dose: 5.0 mg/kg/injection, schedule: Q01DX005 (ip), vehicle: DMSO 92 % of control | dose: 10.0 mg/kg/injection, schedule: Q01DX005 (ip), vehicle: DMSO 100 % of control | dose: 20.0 mg/kg/injection, schedule: Q01DX005 (ip), vehicle: DMSO 93 % of control

Cc1cccc(N2CCN(C(=O)/C(=C/c3ccccc3)NC(=O)c3ccccc3)CC2)c1
inactive: [1] 93 % of control | [2] 89 % of control

COc1cccc(/C=N/NC(=O)CNC(=O)Nc2cccc([N+](=O)[O-])c2)c1OC
inactive: [3] 90 % of control | [4] 89 % of control and 96 % of control | [5] 99 % of control and 100 % of control

S=C1N(c2ccc(Cl)cc2)C2=C(N=Nc3ccccc3)C(=Nc3ccccc3S2)N1c1ccccn1
inactive: [1] 109 % of control | [2] 108 % of control

CC(C)CC1NC(CC(C)C)N2C(CC(C)C)N12 (configuration not stated)
inactive: dose: 100.0 mg/kg/injection, schedule: Q01DX001 (ip), vehicle: Klucel (hydroxypropylcellulose) (HPC) 103 % of control | dose: 200.0 mg/kg/injection, schedule: Q01DX001 (ip), vehicle: Klucel (hydroxypropylcellulose) (HPC) 103 % of control | dose: 400.0 mg/kg/injection, schedule: Q01DX001 (ip), vehicle: Klucel (hydroxypropylcellulose) (HPC) 99 % of control

O=C(CCl)Nc1cccc(CCC(=O)c2ccccc2NC(=O)CCl)c1
inactive: dose: 15.0 mg/kg/injection, schedule: Q01DX005 (ip), vehicle: saline 102 % of control | dose: 30.0 mg/kg/injection, schedule: Q01DX005 (ip), vehicle: saline 106 % of control | [3] 100 % of control | [6] 100 % of control

C/C(=N\NC(=S)N1CCCCC1C)c1nccs1 (configuration not stated)
inactive: dose: 12.5 mg/kg/injection, schedule: Q01DX005 (ip), vehicle: saline with Tween-80 100 % of control and 108 % of control | dose: 25.0 mg/kg/injection, schedule: Q01DX005 (ip), vehicle: saline with Tween-80 104 % of control and 111 % of control | [1] 112 % of control and 118 % of control

CCOC(=O)CCC(NC(=O)c1ccc(CBr)cc1)C(=O)OCC (configuration not stated)
inactive: dose: 12.5 mg/kg/injection, schedule: Q01DX009 (ip), vehicle: distilled water + Tween-80 102 % of control | dose: 25.0 mg/kg/injection, schedule: Q01DX009 (ip), vehicle: distilled water + Tween-80 111 % of control | dose: 50.0 mg/kg/injection, schedule: Q01DX009 (ip), vehicle: distilled water + Tween-80 107 % of control | dose: 100.0 mg/kg/injection, schedule: Q01DX009 (ip), vehicle: distilled water + Tween-80 100 % of control

CC12CCC(=O)C=C1C=CC1C2CCC2(C)C1CCC21CCC(=O)O1 (configuration not stated)
inactive: dose: 50.0 mg/kg/injection, schedule: Q01DX009 (ip), vehicle: saline with Tween-80 94 % of control | dose: 100.0 mg/kg/injection, schedule: Q01DX009 (ip), vehicle: saline with Tween-80 91 % of control | dose: 200.0 mg/kg/injection, schedule: Q01DX009 (ip), vehicle: saline with Tween-80 97 % of control

C=C(C)C(=NC1CCCCC1)NC(C)(C)C
inactive: dose: 25.0 mg/kg/injection, schedule: Q01DX005 (ip), vehicle: Klucel (hydroxypropylcellulose) (HPC) 99 % of control | [7] 100 % of control | [8] 99 % of control and 102 % of control

Cc1ccc2c(c1)S(=O)(=O)c1ccc3ccccc3c1N2
inactive: [1] 101 % of control | [2] 99 % of control | [9] 100 % of control

COc1cc2c[n+]3ccccc3c(N)c2cc1OC
inactive: dose: 50.0 mg/kg/injection, schedule: Q04DX003 (ip), vehicle: distilled water + Tween-80 110 % of control | dose: 100.0 mg/kg/injection, schedule: Q04DX003 (ip), vehicle: distilled water + Tween-80 106 % of control | dose: 200.0 mg/kg/injection, schedule: Q04DX003 (ip), vehicle: distilled water + Tween-80 97 % of control

[NH-]CC[NH-].[NH-]CC[NH-].[NH-]CC[NH-].[Ni]
inactive: dose: 6.25 mg/kg/injection, schedule: Q01DX009 (ip), vehicle: saline 90 % of control | dose: 12.5 mg/kg/injection, schedule: Q01DX009 (ip), vehicle: saline 90 % of control

C1=Cc2ccccc2CS1
inactive: [10] 106 % of control | dose: 50.0 mg/kg/injection, schedule: Q01DX009 (ip), vehicle: other 116 % of control | dose: 100.0 mg/kg/injection, schedule: Q01DX009 (ip), vehicle: other 108 % of control | dose: 200.0 mg/kg/injection, schedule: Q01DX009 (ip), vehicle: other 88 % of control | dose: 400.0 mg/kg/injection, schedule: Q01DX009 (ip), vehicle: other 88 % of control

Cn1ccnc1[Si](C)(C)C
inactive: [3] 101 % of control | [4] 107 % of control | [5] 99 % of control

CC(=O)Nn1cnc2[nH]ncc2c1=O
inactive: [6] 102 % of control | [11] 101 % of control | dose: 240.0 mg/kg/injection, schedule: Q01DX005 (ip), vehicle: saline 101 % of control

Cc1ccc(I)c(C(O)(C(F)(F)F)C(F)(F)F)c1
inactive: dose: 50.0 mg/kg/injection, schedule: Q01DX009 (ip), vehicle: Klucel (hydroxypropylcellulose) (HPC) 97 % of control | dose: 100.0 mg/kg/injection, schedule: Q01DX009 (ip), vehicle: Klucel (hydroxypropylcellulose) (HPC) 91 % of control

CCCCCCCCC1SC1CCCCCCCC(=O)OCC1CS1 (configuration not stated)
inactive: dose: 100.0 mg/kg/injection, schedule: Q01DX001 (ip), vehicle: other 100 % of control | dose: 200.0 mg/kg/injection, schedule: Q01DX001 (ip), vehicle: other 100 % of control | dose: 400.0 mg/kg/injection, schedule: Q01DX001 (ip), vehicle: other 100 % of control

CCCCCc1cc(O)cc2c1Oc1cc(O)cc(C(=O)CCCC)c1C(=O)O2
inactive: [1] 98 % of control | [2] 100 % of control | [9] 107 % of control

CC(C)(C)COCC(O)Cn1cnc2c(N)ncnc21 (configuration not stated)
inactive: [7] 100 % of control | [8] 97 % of control | dose: 200.0 mg/kg/injection, schedule: Q01DX005 (ip), vehicle: Klucel (hydroxypropylcellulose) (HPC) 91 % of control

O=C1Cc2cc3c(cc2C=C2CCCN12)OCO3
inactive: dose: 6.25 mg/kg/injection, schedule: Q01DX009 (ip), vehicle: water 100 % of control | dose: 12.5 mg/kg/injection, schedule: Q01DX009 (ip), vehicle: water 100 % of control | dose: 25.0 mg/kg/injection, schedule: Q01DX009 (ip), vehicle: water 103 % of control | dose: 50.0 mg/kg/injection, schedule: Q01DX009 (ip), vehicle: water 106 % of control | dose: 100.0 mg/kg/injection, schedule: Q01DX009 (ip), vehicle: water 100 % of control

COc1c(COC(C)=O)ccc2c1C(=O)c1ccccc1C2=O
inactive: dose: 100.0 mg/kg/injection, schedule: Q04DX002 (ip), vehicle: Klucel (hydroxypropylcellulose) (HPC) 108 % of control | dose: 200.0 mg/kg/injection, schedule: Q04DX002 (ip), vehicle: Klucel (hydroxypropylcellulose) (HPC) 92 % of control | dose: 400.0 mg/kg/injection, schedule: Q04DX002 (ip), vehicle: Klucel (hydroxypropylcellulose) (HPC) 93 % of control

COCCCNCC(=O)Nc1ccc(S(=O)(=O)c2ccc(NC(=O)CNCCCOC)cc2)cc1
inactive: dose: 50.0 mg/kg/injection, schedule: Q01DX005 (ip), vehicle: acid diluted with saline 107 % of control | dose: 100.0 mg/kg/injection, schedule: Q01DX005 (ip), vehicle: acid diluted with saline 104 % of control | dose: 200.0 mg/kg/injection, schedule: Q01DX005 (ip), vehicle: acid diluted with saline 112 % of control

CS(=O)(=O)Oc1ccc2c(c1)CCC2
inactive: dose: 50.0 mg/kg/injection, schedule: Q04DX003 (ip), vehicle: saline 99 % of control | dose: 100.0 mg/kg/injection, schedule: Q04DX003 (ip), vehicle: saline 101 % of control | dose: 200.0 mg/kg/injection, schedule: Q04DX003 (ip), vehicle: saline 108 % of control | dose: 400.0 mg/kg/injection, schedule: Q04DX003 (ip), vehicle: saline 102 % of control

O=P(c1ccccc1)(c1ccccc1)c1ccccc1 (tested in a mixture with another compound)
inactive: [10] 89 % of control

COC(=O)C(CS[C@@H]1CCCC[C@H]1O)NC(C)=O (some centres not stated)
inactive: dose: 40.0 mg/kg/injection, schedule: Q01DX005 (ip), vehicle: saline 92 % of control | [6] 96 % of control | [11] 96 % of control
